We go through one substance from patent US11472843B2, “Malacidins and methods of use” (The Rockefeller University, priority 2017, dated 2022).

Assay [1] relates to Acinetobacter baumannii ATCC 17978. Description: MIC assay, A. baumannii. The format is cell-based. The conditions noted are these: range of at least three independent experiments. The method, then: (§1) MIC assays were performed in duplicate in 96-well microtiter plates on the basis of the protocol recommended by the Clinical and Laboratory Standards Institute (Cockerill, 2012, Clinical and Laboratory Standards Institute). All presented data are the average of at least three independent assays. Stock solutions of malacidin or daptomycin (2 mg ml^−1 in H2O) were added to the first well in a row and serially diluted (twofold per transfer) across the microtiter plate. CaCl2 was supplemented to media at a final concentration of 15 mM and fetal bovine serum (ATCC) was added to media (1:10) to test the effect of serum. Overnight cultures of bacteria were diluted 5,000-fold, and 50 μl was used as an inoculum in each well. MIC values were determined by visual inspection after 18 h incubation (30° C., static growth). For the enhanced calcium titration experiments, standard MIC assays were performed with methicillin-resistant Staphylococcus aureus (MRSA) PFGE strain type USA300 in media supplemented with CaCl2 at: 25.0, 18.8, 14.1, 7.03, 3.52, 2.50, 1.76, 0.880, 0.440, 0.250 and 0 mM. To assess the effects of monovalent and divalent cations on malacidin activity, standard MIC assays were performed with MRSA USA300 in media supplemented with 15 mM CaCl2, MgCl2, MnCl2, ZnCl2, SrCl2, NaCl and KCl. To evaluate the effects of pulmonary surfactants on activity against a community-acquired pneumonia-causing pathogen, standard MIC assays were performed with Streptococcus pneumoniae TCH8431 in media supplemented with both 15 mM […] and Survanta (beractant) at a final concentration of 5, 1, 0.5, 0.25 or 0% (volume/volume (v/v) percent).

A further assay relates to HEK293 cells. The format is cell-based, human. The note with it: viability, in the presence of calcium, 4.5 h. The method, then:
Cytotoxicity against human cell lines was tested using an ATP release assay, CelITiter-Glo (Promega), according to the manufacturer's instructions. HEK293 cells (293FT, Thermo Fisher Scientific, no. R700-07) and MRC5 cells (ATCC CCL-171) were grown in complete DMEM media supplemented with 10% FBS, and were inspected visually for authentication and tested for mycoplasma contamination using a MycoAlert detection kit (Lonza). Cells were grown to confluence, trypsinized, counted and plated in 384-well cell culture plates at an appropriate density (2,500 cells per well for HEK293 and 1000 cells per well for MRC5). The test compound was added 24 h later in the presence of calcium, and viability was determined after 4.5 h of incubation. Experiments were performed with biological replicates. Haemolytic activity was evaluated by a red blood cell disc diffusion assay. Twenty-microlitre stocks of malacidin A and Triton X-100 were infused on filter discs, dried completely and then overlaid on 5% sheep blood agar plates (Hardy Diagnostics). The plates were incubated for 24 h at 20° C., and then checked for lysis.

In another assay the test system is S. aureus BAA-42. Description: MIC assay, S. aureus BAA-42. The format is cell-based, Staphylococcus aureus. The note with it: β-lactams. The method, then:
as §1

In another assay the test system is E. faecium VRE. Description: MIC assay, E. faecium VRE. Type of assay: cell-based, Enterococcus faecium. The conditions noted are these: Vancomycin (VRE). Here is the method: as §1
Assay [2] relates to Salmonella enterica IR 715. Description: MIC assay, Salmonella enterica. Type of assay: cell-based. Here is the method: as §1
The subject of the next assay is S. aureus COL. Description: MIC assay, S. aureus COL. The format is cell-based, Staphylococcus aureus. The note with it: β-lactams. Here is the method: as §1
A further assay deals with S. aureus NRS108. In words: MIC assay, S. aureus NRS108. The format is cell-based, Staphylococcus aureus. The conditions noted are these: β-lactams. Here is the method: as §1
In the next assay the test system is E. faecium Com15. Description: MIC assay, E. faecium Com15. Type of assay: cell-based, Enterococcus faecium. Here is the method: as §1
Assay [3] concerns Cryptococcus neoformans ATCC 32045. In words: MIC assay, C. neoformans. The format is cell-based. The method, then: as §1
The subject of assay [4] is Streptococcus pneumoniae TCH8431. In words: MIC assay, S. pneumoniae. The format is cell-based. The method, then: as §1
The test system of assay [5] is Klebsiella pneumonia ATCC 10031. In words: MIC assay, Klebsiella pneumonia. The format is cell-based. Here is the method:
as §1

Assay [6] in a line: Complex formation with cell wall precursors (TLC mobility shift), C55-P. The format is binding. The note with it: 1 nmol precursor, 0.5 nmol antibiotic. Here is the method: Binding of malacidin to C55-P and lipid II was evaluated by incubating 1 nmol of each purified precursor with 0.5 nmol of malacidin or daptomycin in 100 mM Tris-HCl, pH 7.5, 0.1% Triton X-100, 13 mM MgCl2, and with or without 25 mM CaCl2, for 60 min at 37° C. Subsequently, the mixture was extracted twice with n-BuOH/6 M pyridinium acetate buffer, pH 4.2 (3:1, v/v). The butanol fraction was evaporated and the residue was dissolved in CHCl3/methanol (1:1, v/v). The resuspension was analysed for the loss of unbound malacidin or daptomycin to a complex by TLC analysis using chloroform/methanol/water/ammonia (88:48:10:1, v/v/v/v) as the solvent and detection by 254/366 nm visualization. Experiments were performed with biological replicates.

malacidin A: the MIC in assay [1] is greater than 100 µg/mL; in the assay on S. aureus BAA-42 (S. aureus BAA-42, 15 mM CaCl2), 0.2-0.8 μg m1^−1; in the assay on S. aureus BAA-42 (Staphylococcus aureus BAA-42), 0.2 to 0.8 µg/mL; with E. faecium VRE (E. faecium VRE, 15 mM CaCl2), 0.4-0.8 μg m1^−1; in the assay with E. faecium VRE (Enterococcus faecium VRE), 0.8 to 2.0 µg/mL; in assay [2] it was greater than 100 µg/mL. Further, the MIC with S. aureus COL (S. aureus COL, 15 mM CaCl2) is 0.2-0.8 μg m1^−1; in the assay on S. aureus COL (Staphylococcus aureus COL) it was 0.2 to 0.8 µg/mL; in the assay on S. aureus NRS108 (S. aureus NRS 108, gentamicin, kanamycin, 15 mM CaCl2), 0.2-0.8 μg m1^−1; in the assay on S. aureus NRS108 (Staphylococcus aureus NRS108, Gentamicin, Kanamycin), 0.2 to 0.8 µg/mL; with E. faecium Com15 (E. faecium Com15, 15 mM CaCl2), 0.8-2.0 μg m1^−1; against E. faecium Com15 (Enterococcus faecium Com15) it was 0.8 to 2.0 µg/mL. Besides, the MIC in [3] (C. neoformans, 15 mM CaCl2) was greater than 100 μg m1^−1; in assay [3] (Cryptococcus neoformans ATCC 32045), greater than 100 µg/mL; in [4] (S. pneumoniae, 15 mM CaCl2), 0.8-2.0 μg m1^−1; in assay [4] (Streptococcus pneumoniae TCH8431), 0.1 to 0.2 µg/mL; in assay [5] it was greater than 100 µg/mL. Besides, the IC50 in the assay with HEK293 cells is on record as greater than 100 μg m1^−1. Also, the “Activity against S. pneumoniae in the presence of pulmonary surfactants” value in assay [4] (15 mM CaCl2 and Survanta (beractant) 0-5% v/v) is listed as “largely unaffected”. In addition, the “Sequestration of C55-P (TLC mobility shift)” value in assay [6] is “did not sequester C55-P”.
